The values below come from paper PMC6269876, “Pancreatic Lipase Inhibitory Gallotannins from Galla Rhois with Inhibitory Effects on Adipocyte Differentiation in 3T3-L1 Cells” (Molecules, 2013).

One may read the IC50 as the concentration at which inhibition is half-maximal. The inhibition is the relative decrease from the control value, in per cent.

A value given as a limit tells only on which side of the number the result lay.

Assay [1] concerns the target T1, porcine pancreatic lipase (Sus scrofa, UniProt P00591).
T1 construct: purchased Sigma, St. Louis, MO, USA
T1 sequence (P00591 1-450): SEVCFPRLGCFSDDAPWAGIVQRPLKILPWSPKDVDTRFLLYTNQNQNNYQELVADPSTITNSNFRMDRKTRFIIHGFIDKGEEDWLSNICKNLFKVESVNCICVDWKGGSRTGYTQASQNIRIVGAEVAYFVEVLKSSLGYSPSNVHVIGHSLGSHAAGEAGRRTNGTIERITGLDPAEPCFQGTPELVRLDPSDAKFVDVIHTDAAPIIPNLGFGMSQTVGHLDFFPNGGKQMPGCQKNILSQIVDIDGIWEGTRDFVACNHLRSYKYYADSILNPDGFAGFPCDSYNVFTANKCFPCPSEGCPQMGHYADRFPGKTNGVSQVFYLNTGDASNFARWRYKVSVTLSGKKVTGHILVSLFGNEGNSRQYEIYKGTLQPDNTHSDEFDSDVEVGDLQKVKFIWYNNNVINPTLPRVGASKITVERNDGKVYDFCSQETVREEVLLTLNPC
The assay can be described thus: Pancreatic lipase activity assay (p-nitrophenylbutyrate hydrolysis). Type of assay: biochemical. Conditions: for IC50: mean ± SD of three replicates, regression analysis, read-out: Pancreatic lipase inhibitory activity IC50. The protocol: A previously reported method, with a minor modification, was used for evaluation of the ability of the compounds to inhibit porcine pancreatic lipase. Briefly, an enzyme buffer was prepared by addition of 30 μL (10 units) of a solution of porcine pancreatic lipase (Sigma, St. Louis, MO, USA) in 10 mM morpholinepropanesulphonic acid (MOPS) and 1 mM EDTA (pH 6.8) to 850 μL of Tris buffer (100 mM Tris-HC1 and 5 mM CaCl2, pH 7.0). […] Inhibition of lipase activity was expressed as the percentage decrease in the optical density (OD) when porcine pancreatic lipase was incubated with the test compounds.

For assay [2], the system named is 3T3-L1 cells. The assay can be described thus: Assay of adipocyte differentiation in 3T3-L1 cells (Oil Red O staining). Type of assay: cell-based. The settings on record: Mus musculus, 3T3-L1, 50 μM, treated throughout the differentiation period; read-out: Inhibition of lipid deposition (lipid accumulation). On the procedure: Of particular interest, a certain degree of galloylation on the glucose moiety of these active molecules appears to be required for potent inhibitory activity. […] The non-toxic concentrations of the tested compounds were established in 3T3-L1 preadipocytes using concentrations of 50, 25, and 10 μM. After two days of incubation, an MTT assay was performed for measurement of cell viability; according to the results, no cytotoxic effect was detectable for any of the tested compounds in concentrations up to 50 μM. […] 3T3-L1 mouse embryo fibroblasts were cultured in DMEM supplemented with 10% FBS until reaching confluence. Two days after reaching confluence (day 0), to initiated differentiation, cells were stimulated with differentiation medium containing DMEM with 10% FBS, 0.5 mM 3-isobutyl-1-methylxanthine, 1 μM insulin and 1 μM dexamethasone for two days (day 2). […] All media contained 100 IU/mL penicillin and 100 μg/mL streptomycin. Cells were maintained at 37 °C in a humidified atmosphere of 95% air-5% CO2. Throughout the culture period (days 0–8), the cultures were treated with test samples for general experiments, with a slight modification. […] For quantitative analysis, Oil Red O staining was dissolved with isopropyl alcohol and optical density was measured at 500 nm using an ELISA plate reader.

Regarding `C[C@H]1O[C@H](C)[C@@H](O)C2=C1C(=O)c1c(O)cc(O)c(-c3c4c(c(O)c5c(O[C@@H]6O[C@H](CO)[C@@H](O)[C@H](O)[C@H]6O)cc(O)cc35)[C@@H](C)O[C@H](C)[C@H]4O)c1C2=O` [Compound 1, protoaphin-fb], the half-maximal inhibitory concentration (IC50) in assay [1] amounted to 30.6 ± 2.4 µM.

As for `O=C(OC[C@H]1O[C@@H](OC(=O)c2cc(O)c(O)c(O)c2)[C@H](OC(=O)c2cc(O)c(O)c(OC(=O)c3cc(O)c(O)c(O)c3)c2)[C@@H](OC(=O)c2cc(O)c(O)c(O)c2)[C@@H]1OC(=O)c1cc(O)c(O)c(O)c1)c1cc(O)c(O)c(O)c1` [Compound 2, 2-O-digalloyl-1,3,4,6-tetra-O-galloyl-β-D-glucose], in assay [2], the inhibition at 50 µM amounted to 64%. Moreover, in assay [1], the 50% inhibitory concentration (IC50) came to 3.5 ± 0.5 µM.

As to `O=C(OC[C@H]1O[C@@H](OC(=O)c2cc(O)c(O)c(O)c2)[C@H](OC(=O)c2cc(O)c(O)c(O)c2)[C@@H](OC(=O)c2cc(O)c(O)c(O)c2)[C@@H]1OC(=O)c1cc(O)c(O)c(O)c1)c1cc(O)c(O)c(O)c1` [Compound 3, 1,2,3,4,6-penta-O-galloyl-β-D-glucose], the IC50 in assay [1] stood at 15.9 ± 1 µM.

`O=C(OC[C@H]1O[C@@H](OC(=O)c2cc(O)c(O)c(O)c2)[C@H](OC(=O)c2cc(O)c(O)c(O)c2)[C@@H](O)[C@@H]1OC(=O)c1cc(O)c(O)c(O)c1)c1cc(O)c(O)c(O)c1` [Compound 4, 1,2,4,6-tetra-O-galloyl-β-D-glucose]: the IC50 in assay [1] is 23.2 ± 1.8 µM.

Consider `COC(=O)c1cc(O)c(O)c(O)c1` [Compound 6, methylgallate], for which, in assay [1], the “Pancreatic lipase inhibition, result in words” value is “inactive” and the IC50 was greater than 300 µM.

For `O=C(O)c1cc(O)c(O)c(O)c1` [Compound 7, gallic acid], in assay [1], the “Pancreatic lipase inhibition, result in words” value was “inactive” and the IC50 is greater than 300 µM.
